Type in all cases: physicochemical
The nature of series [1]: Gravimetric water vapor sorption (moisture sorption isotherm). As for the experimental part: Moisture adsorption/desorption studies were conducted on a VTI vacuum microbalance at 25° C. after drying the sample at 60° C. under vacuum. Moisture adsorption was monitored under vacuum from 0 to 95% relative humidity and desorption was monitored from 95% down to 5% relative humidity. The criteria for equilibrium at a given relative humidity was less than 3 μg of weight change in 18 minutes.

Series [2] in a line: Total volatile content by thermogravimetric analysis (TGA). As to conditions: TA Instruments Hi-Res TGA 2950 thermogravimetric analyzer (FIG. 7). The procedure: Accordingly, in a second aspect of the present invention there is provided the compound of formula (I) form VI, having a total volatile content of not more than 0.3% by weight (w/w) as determined by a TA Instruments Hi-Res TGA 2950 thermogravimetric analyzer (FIG. 7).
Differential scanning calorimetry (DSC) was performed on a TA Instruments DSC 2920 Differential Scanning Calorimetor equipped with a DSC auto sampler. Samples of 1 to 3 mg were crimped in standard aluminum pans with holes and heated from 25° C. to 250° C. at a rate of 10° C./minute under nitrogen purge. The percentage of total weight loss of the drug substance was determined on a TA Instruments Hi-Res TGA 2950 thermogravimetric analyzer (TGA) with a nitrogen purge.

Series [3] can be described thus: Thermodynamic stability among crystalline forms.
Series [4] in a line: Stability samples stored at elevated temperature/relative humidity, examined for crystal form. Conditions: 80° C./50% RH, 60° C./75% RH, 60° C./50% RH and 40° C./75% RH, sealed conditions, 2 months.

The values below come from patent US6482939B1, “Form vi 5,6-dichloro-2-(isopropylamino)-1-(β-l-ribofuranosyl)-1h-bezimimidazole” (SmithKline Beecham Corporation, priority 1998, dated 2002).

For `CC(C)Nc1nc2cc(Cl)c(Cl)cc2n1[C@H]1O[C@@H](CO)[C@H](O)[C@@H]1O` [Form VI, 5,6-dichloro-2-(isopropylamino)-1-(β-L-ribofuranosyl)-1H-benzimidazole], the hygroscopicity result in series [1] is given as “essentially non-hygroscopic”. In series [1] (equilibrated up to 95% relative humidity at ambient temperature (FIG. 8)), this compound showed a water absorbed of 0.3%. In addition, the total volatile content result in series [2] is “not more than 0.3 % by weight (w/w)”. Further, the “thermodynamic stability relative to other forms” value in series [3] was “most thermodynamically stable form”.

Take `CC(C)Nc1nc2cc(Cl)c(Cl)cc2n1[C@H]1O[C@@H](CO)[C@H](O)[C@@H]1O` [ethanolate, 5,6-dichloro-2-(isopropylamino)-1-(β-L-ribofuranosyl)-1H-benzimidazole]: the “solid form stability on storage (conversion of crystal form)” value in series [4] was “partially or completely converted to Form VI”.
